{
  "source": "paper PMC9322451",
  "about": "(Clinical Pharmacology in Drug Development, 2022)",
  "assay": "Phase 1 part B: safety (TEAEs)",
  "assay_type": "in vivo, human",
  "conditions": "for Any TEAE / Serious TEAE / Severe TEAE / TEAE leading to death / TEAE leading to discontinuation / Abdominal pain upper (TEAE by preferred term) / Decreased appetite (TEAE by preferred term) / Dry skin (TEAE by preferred term) / Headache (TEAE by preferred term) / Skin exfoliation (TEAE by preferred term) / Skin lesion (TEAE by preferred term): Part B, 40 mg; for participants reporting skin exfoliation / participants who experienced a TEAE / number of TEAEs reported: part B",
  "description": "Participants were admitted to the clinical unit the day before doses were administered on days 1 and 8 and discharged on days 2 and 9, after collection of the 36‐hour postdose PK sample. The washout period between doses was 7 days. […] After dosing, participants were required to remain upright for at least 2 hours and refrain from food and drink for at least 4 hours; water was allowed after 2 hours.\nSafety was assessed from the signing of informed consent until the end of study and included the following variables: treatment‐emergent adverse events (TEAEs), serious adverse events (SAEs), clinical laboratory tests (clinical chemistry, hematology, coagulation [part A only], and urinalysis), vital signs, 12‐lead ECG, primary Holter monitoring, and physical examinations (including evaluation of teeth and gingiva, and evaluation of palms and soles). Because of the mechanism of action of brensocatib, findings of hyperkeratosis, periodontitis/gingivitis, and other infections were reported as adverse events of special interest (AESIs). Renal function (part A only) was monitored by measuring serum creatinine and blood urea nitrogen, performing routine urinalysis, and measuring neutrophil gelatinase–associated lipocalin and cystatin.\nAdverse events (AEs) observed before the first dosing were recorded as medical history. All medical history and AEs were coded using the Medical Dictionary for Regulatory Activities (version 21.1 or higher). A TEAE was defined as an AE that began or worsened in severity after at least 1 dose of study drug was administered. All AEs experienced by a participant were monitored until the event had resolved, any abnormal laboratory values returned to baseline or stabilized, a satisfactory explanation for the changes was identified, or the participant was lost to follow‐up.",
  "data": [
    {"smiles": "Cn1c(=O)oc2ccc(-c3ccc(C[C@@H](C#N)NC(=O)[C@@H]4CNCCCO4)cc3)cc21", "note": "[Brensocatib]", "values": [
      {"measurement": "Any TEAE", "setting": "Japanese, Fasted (n=5)", "result": "0 n (%)"},
      {"measurement": "Serious TEAE", "setting": "Japanese, Fasted (n=5)", "result": "0 n (%)"},
      {"measurement": "Severe TEAE", "setting": "Japanese, Fasted (n=5)", "result": "0 n (%)"},
      {"measurement": "TEAE leading to death", "setting": "Japanese, Fasted (n=5)", "result": "0 n (%)"},
      {"measurement": "TEAE leading to discontinuation", "setting": "Japanese, Fasted (n=5)", "result": "0 n (%)"},
      {"measurement": "Abdominal pain upper (TEAE by preferred term)", "setting": "Japanese, Fasted (n=10)", "result": "0 n (%)"},
      {"measurement": "Decreased appetite (TEAE by preferred term)", "setting": "Japanese, Fasted (n=10)", "result": "0 n (%)"},
      {"measurement": "Dry skin (TEAE by preferred term)", "setting": "Japanese, Fasted (n=10)", "result": "0 n (%)"},
      {"measurement": "Headache (TEAE by preferred term)", "setting": "Japanese, Fasted (n=10)", "result": "0 n (%)"},
      {"measurement": "Skin exfoliation (TEAE by preferred term)", "setting": "Japanese, Fasted (n=10)", "result": "0 n (%)"},
      {"measurement": "Skin lesion (TEAE by preferred term)", "setting": "Japanese, Fasted (n=10)", "result": "0 n (%)"},
      {"measurement": "Any TEAE", "setting": "Japanese, Fed (n=5)", "result": "3 (60.0) n (%)"},
      {"measurement": "Serious TEAE", "setting": "Japanese, Fed (n=5)", "result": "0 n (%)"},
      {"measurement": "Severe TEAE", "setting": "Japanese, Fed (n=5)", "result": "0 n (%)"},
      {"measurement": "TEAE leading to death", "setting": "Japanese, Fed (n=5)", "result": "0 n (%)"},
      {"measurement": "TEAE leading to discontinuation", "setting": "Japanese, Fed (n=5)", "result": "0 n (%)"},
      {"measurement": "Abdominal pain upper (TEAE by preferred term)", "setting": "Japanese, Fed (n=9)", "result": "1 (11.1) n (%)"},
      {"measurement": "Decreased appetite (TEAE by preferred term)", "setting": "Japanese, Fed (n=9)", "result": "1 (11.1) n (%)"},
      {"measurement": "Dry skin (TEAE by preferred term)", "setting": "Japanese, Fed (n=9)", "result": "0 n (%)"},
      {"measurement": "Headache (TEAE by preferred term)", "setting": "Japanese, Fed (n=9)", "result": "1 (11.1) n (%)"},
      {"measurement": "Skin exfoliation (TEAE by preferred term)", "setting": "Japanese, Fed (n=9)", "result": "1 (11.1) n (%)"},
      {"measurement": "Skin lesion (TEAE by preferred term)", "setting": "Japanese, Fed (n=9)", "result": "0 n (%)"},
      {"measurement": "Abdominal pain upper (TEAE by preferred term)", "setting": "Japanese, Total (N=10)", "result": "1 (10.0) n (%)"},
      {"measurement": "Any TEAE", "setting": "Japanese, Total (N=10)", "result": "3 (30.0) n (%)"},
      {"measurement": "Decreased appetite (TEAE by preferred term)", "setting": "Japanese, Total (N=10)", "result": "1 (10.0) n (%)"},
      {"measurement": "Dry skin (TEAE by preferred term)", "setting": "Japanese, Total (N=10)", "result": "0 n (%)"},
      {"measurement": "Headache (TEAE by preferred term)", "setting": "Japanese, Total (N=10)", "result": "1 (10.0) n (%)"},
      {"measurement": "Serious TEAE", "setting": "Japanese, Total (N=10)", "result": "0 n (%)"},
      {"measurement": "Severe TEAE", "setting": "Japanese, Total (N=10)", "result": "0 n (%)"},
      {"measurement": "Skin exfoliation (TEAE by preferred term)", "setting": "Japanese, Total (N=10)", "result": "1 (10.0) n (%)"},
      {"measurement": "Skin lesion (TEAE by preferred term)", "setting": "Japanese, Total (N=10)", "result": "0 n (%)"},
      {"measurement": "TEAE leading to death", "setting": "Japanese, Total (N=10)", "result": "0 n (%)"},
      {"measurement": "TEAE leading to discontinuation", "setting": "Japanese, Total (N=10)", "result": "0 n (%)"},
      {"measurement": "Any TEAE", "setting": "White, Fasted (n=5)", "result": "1 (20.0) n (%)"},
      {"measurement": "Serious TEAE", "setting": "White, Fasted (n=5)", "result": "0 n (%)"},
      {"measurement": "Severe TEAE", "setting": "White, Fasted (n=5)", "result": "0 n (%)"},
      {"measurement": "TEAE leading to death", "setting": "White, Fasted (n=5)", "result": "0 n (%)"},
      {"measurement": "TEAE leading to discontinuation", "setting": "White, Fasted (n=5)", "result": "0 n (%)"},
      {"measurement": "Abdominal pain upper (TEAE by preferred term)", "setting": "White, Fasted (n=10)", "result": "0 n (%)"},
      {"measurement": "Decreased appetite (TEAE by preferred term)", "setting": "White, Fasted (n=10)", "result": "0 n (%)"},
      {"measurement": "Dry skin (TEAE by preferred term)", "setting": "White, Fasted (n=10)", "result": "0 n (%)"},
      {"measurement": "Headache (TEAE by preferred term)", "setting": "White, Fasted (n=10)", "result": "0 n (%)"},
      {"measurement": "Skin exfoliation (TEAE by preferred term)", "setting": "White, Fasted (n=10)", "result": "0 n (%)"},
      {"measurement": "Skin lesion (TEAE by preferred term)", "setting": "White, Fasted (n=10)", "result": "1 (10.0) n (%)"},
      {"measurement": "Any TEAE", "setting": "White, Fed (n=5)", "result": "2 (40.0) n (%)"},
      {"measurement": "Serious TEAE", "setting": "White, Fed (n=5)", "result": "0 n (%)"},
      {"measurement": "Severe TEAE", "setting": "White, Fed (n=5)", "result": "0 n (%)"},
      {"measurement": "TEAE leading to death", "setting": "White, Fed (n=5)", "result": "0 n (%)"},
      {"measurement": "TEAE leading to discontinuation", "setting": "White, Fed (n=5)", "result": "0 n (%)"},
      {"measurement": "Abdominal pain upper (TEAE by preferred term)", "setting": "White, Fed (n=10)", "result": "0 n (%)"},
      {"measurement": "Decreased appetite (TEAE by preferred term)", "setting": "White, Fed (n=10)", "result": "0 n (%)"},
      {"measurement": "Dry skin (TEAE by preferred term)", "setting": "White, Fed (n=10)", "result": "1 (10.0) n (%)"},
      {"measurement": "Headache (TEAE by preferred term)", "setting": "White, Fed (n=10)", "result": "0 n (%)"},
      {"measurement": "Skin exfoliation (TEAE by preferred term)", "setting": "White, Fed (n=10)", "result": "1 (10.0) n (%)"},
      {"measurement": "Skin lesion (TEAE by preferred term)", "setting": "White, Fed (n=10)", "result": "0 n (%)"},
      {"measurement": "Abdominal pain upper (TEAE by preferred term)", "setting": "White, Total (N=10)", "result": "0 n (%)"},
      {"measurement": "Any TEAE", "setting": "White, Total (N=10)", "result": "3 (30.0) n (%)"},
      {"measurement": "Decreased appetite (TEAE by preferred term)", "setting": "White, Total (N=10)", "result": "0 n (%)"},
      {"measurement": "Dry skin (TEAE by preferred term)", "setting": "White, Total (N=10)", "result": "1 (10.0) n (%)"},
      {"measurement": "Headache (TEAE by preferred term)", "setting": "White, Total (N=10)", "result": "0 n (%)"},
      {"measurement": "Serious TEAE", "setting": "White, Total (N=10)", "result": "0 n (%)"},
      {"measurement": "Severe TEAE", "setting": "White, Total (N=10)", "result": "0 n (%)"},
      {"measurement": "Skin exfoliation (TEAE by preferred term)", "setting": "White, Total (N=10)", "result": "1 (10.0) n (%)"},
      {"measurement": "Skin lesion (TEAE by preferred term)", "setting": "White, Total (N=10)", "result": "1 (10.0) n (%)"},
      {"measurement": "TEAE leading to death", "setting": "White, Total (N=10)", "result": "0 n (%)"},
      {"measurement": "TEAE leading to discontinuation", "setting": "White, Total (N=10)", "result": "0 n (%)"},
      {"measurement": "participants reporting skin exfoliation", "setting": "Japanese", "result": 10.0, "unit": "%"},
      {"measurement": "participants who experienced a TEAE", "setting": "Japanese", "result": 30.0, "unit": "%"},
      {"measurement": "number of TEAEs reported", "setting": "Japanese, fasted conditions", "result": "none"},
      {"measurement": "number of TEAEs reported", "setting": "Japanese, fed conditions", "result": 4},
      {"measurement": "participants reporting skin exfoliation", "setting": "White", "result": 10.0, "unit": "%"},
      {"measurement": "participants who experienced a TEAE", "setting": "White", "result": 30.0, "unit": "%"},
      {"measurement": "number of TEAEs reported", "setting": "White, fasted conditions", "result": 1},
      {"measurement": "number of TEAEs reported", "setting": "White, fed conditions", "result": 2}
    ]}
  ]
}
